Measurements from patent US10945972B2, “Particulate materials” (Nektar Therapeutics, priority 2002, dated 2021).

How the values were obtained:
Type in all cases: physicochemical
[1] = Laser diffraction HELOS/RODOS of TBS (Example 8); details: 2 bar, listed as TBS 2
Experimental: A small amount of TBS powder was analysed using a laser diffraction RODOS/VIBRI dispersing system (HELOS/RODOS, Sympatec GmbH, Clausthal-Zellerfeld, Germany). The instrument consisted of a laser sensor HELOS and a RODOS dry-powder air-dispersion system (Sympatec GmbH, Clausthal-Zellerfeld, Germany). Different measurement ranges of the laser sensor were provided by interchangeable objectives R1 (0.1-35 μm) and R2 (0.25-87.5 μm). The rate of powder dispersion was controlled by adjusting the pressure of the compressed air flow. A pressure of 2 bar was sufficient to achieve deagglomeration of primary particles without attrition.

[2] = AEROFLOW powder avalanching (Example 8); details: listed as TBS 2
Experimental: An AEROFLOW™ powder avalanching apparatus (Amherst Process Instruments, API, Amherst, USA) was employed to analyze the dynamic avalanching behaviour of micronized and SC processed TBS samples. The AEROFLOW™ apparatus consists of a transparent rotating drum with a port at the front. A white light source is positioned in front of the drum and a masked array of photocells is behind the drum. To measure avalanching, 50 ml of the drug powder was added to the drum, which is about 15% of its total volume to ensure good powder mixing during the operation. As the drum rotates, the powder bed is carried upwards until an unstable state is reached and an avalanche occurs.
The time between successive avalanches was recorded by the projection of the light beam through the drum onto the photocell array. The photocells generated a voltage dependent on the amount of light falling on the cells and the area of unmasked photocells shielded from the light source by the powder. The voltage output (transmitted light intensity) was recorded by a computer, which translates the output as powder movement using a technique disclosed in B. H. Kaye. Characterizing the flowability of a powder using the concepts of fractal geometry and chaos theory, Part. Part. Charact. 14: 53-66 (1997). Each TBS sample was tested in duplicate and mean avalanche time and irregularity (scatter) of avalanches were recorded.

[3] = Inverse gas chromatography of TBS (Example 8)
Experimental: An empty GC column was uniformly packed with the powder of interest (TBS). Pre-silanized commercially available straight glass columns of 30 cm length with a 3 mm internal diameter were used in this investigation. The silanation procedure was necessary to minimize active sites on the inner glass surfaces, which strongly interact with polar probes. Each column was packed at the detector end with a small amount of silanised glass wool, was clipped to a stand and powder was added through a glass funnel with the aid of a mechanical column packer (tapping) to improve powder flow and remove any air gaps. […] A. Hewlett Packard 6890 Series Gas Chromatograph (GC) (Hewlett Packard, Penna, USA) oven equipped with an autosampler was used to control the solvent temperature. The 6890 GC data acquisition system was used to record data from a thermal conductivity detector (TCD) and flame ionisation detector (FID) with the instrument modified for IGC by Surface Measurement Systems (SMS), Manchester, UK. The combination of detectors allowed sensitive analysis of both organic vapour elution and water (although RH was not raised above 0% for these experiments).
The whole system was fully automated by control software (SMS iGC Controller v1.3) and the data analyzed using SMS iGC Analysis macros. Prior to analysis, each column was equilibrated at 30° C. and 0% relative humidity (RH) for 5 hours by passing dry helium gas through the column. Helium gas was also used as the carrier gas. Hydrogen and compressed air flow rates were set at 40 and 450 ml min respectively for the FID. The chromatograph injection port was maintained at 80° C., TCD detector at 150° C. and the FID detector at 150° C. Column temperature was set at 30° C. throughout analysis. Data were obtained by flowing helium gas at 10 ml min^−1 through the sinalized glass column packed with a known weight of powdered material and injecting small amounts (concentration P/Po=0.05) of a range of probe vapors with different polarities. The retention times of the probes were measured using SMS iGC Controller v1.3 software, at infinite dilution or near zero surface coverage (equivalent to 10^−4-10^−7 μl of liquid) where retention is independent of the quantity of probe injected. For each sample, two columns were prepared and analysed by employing a method based on standard settings, which allows the precise control and measurement of experimental variables. This is essential in producing meaningful results. The data were used to calculate the dispersive and non-dispersive forces acting at TBS particle surfaces using the method developed by Schultz and co-workers (J. Schultz, L. Lavielle and C. Martin. The role of the interface in carbon fibre-epoxy composites, J. Adhesion, 23, 45-60 (1987)).

[4] = Dynamic vapor sorption (Example 8); details: 25° C.
Experimental: The moisture sorption isotherm of each powder at 25° C. was measured using a dynamic vapour sorption (DVS) instrument made by Surface Measurement Systems, UK. This instrument gravimetrically measures uptake and loss of water vapor on a substrate by means of a recording microbalance with a resolution of ±0.1 μg. In the first step of the experimental run, the sample was dried at 25° C. and 0% relative humidity (RH) for at least 600 minutes to bring the sample to near zero wt % H2O. Then, the instrument was programmed to increase the RH in steps of 5% RH from 0% to 90% RH and decrease the RH in steps of 10% RH from 90% to 0% RH. A criterion of dm/dt=0.005%/min was chosen for the system to hold at each RH step before proceeding to the next RH step. Sample masses between 30 and 100 mg were used in this study. The change in mass (%) is expressed in terms of g H2O per 100 g of dry substance.

[5] = Inverse gas chromatography surface energy (Example 1); details: 303K
Source text: For TBS and FHBr powders, IGC was done using a Hewlett Packard Series 6890 instrument which was specifically modified for IGC measurements by Surface Measurement Systems Ltd (Manchester, UK). The IGC method is described in detail by Tong et al. 2001. (Tong H. H. Y., B. Y. Shekunov, P. York, A. H. L. Chow, 2001. Pharm. Res. 18, 852.) Triplicate measurements in separate packed columns were made. […] The γS^D and ΔGA values were obtained at 303K.

Sympatec D4, 3 (μm) [1]: 3.43 μm
Irregularity of flow ([2]; 100 sec/rev): 1.17 s
Mean time to avalanche ([2]; 100 sec/rev): 3.30 s
Irregularity of flow ([2]; 145 sec/rev): 2.12 s
Mean time to avalanche ([2]; 145 sec/rev): 4.91 s
γs^D mJm^−2 ([3]; 30° C., 0% RH, listed as TBS 2): 55.05 mJm^−2
KA ([3]; listed as TBS 2): 0.778
−ΔGA^SP (kJ/mol) Acetone ([3]; probe acetone, listed as TBS 2): 10.42 kJ/mol
−ΔGA^SP (kJ/mol) Dioxane ([3]; probe dioxane): 14.20 kJ/mol
−ΔGA^SP (kJ/mol) Ethyl acetate ([3]; probe ethyl acetate, listed as TBS 2): 13.76 kJ/mol
−ΔGA^SP (kJ/mol) Toluene ([3]; probe toluene, listed as TBS 2): 2.85 kJ/mol
γs^D (mJ/m^2) [5]: 55.05 mJ/m^2
ΔGA (kJ/mol) Acetone ([5]; probe acetone): 10.42 kJ/mol
ΔGA (kJ/mol) Chloroform ([5]; probe chloroform): 1.21 kJ/mol
ΔGA (kJ/mol) Dioxane ([5]; probe dioxane): 14.20 kJ/mol
ΔGA (kJ/mol) Ethyl acetate ([5]; probe ethyl acetate): 13.76 kJ/mol
ΔGA (kJ/mol) Toluene ([5]; probe toluene): 2.85 kJ/mol
SMILES: CC(C)(C)NCC(O)c1cc(O)cc(O)c1 (stereo not drawn) [TSB SEDS, terbutaline sulphate]
moisture uptake compared with micronised sample [4]: slightly higher moisture uptake than the micronised sample
